Literature values as cited in patent US20090304721A1, “TOXIN […] RECEPTOR ANTIBODIES” (priority 2005, published 2009).

Conditions: compared with vincristine and vinblastine; cited from earlier work

COc1cc2cc(c1Cl)N(C)C(=O)C[C@H](OC(=O)[C@H](C)N(C)C(C)=O)[C@]1(C)O[C@H]1[C@H](C)[C@@H]1C[C@@](O)(NC(=O)O1)[C@H](OC)/C=C/C=C(\C)C2 [Maytansine]
cytotoxicity in vitro relative to vinca alkaloids: 200 to 1,000 fold
